{"source": "paper PMC9377007", "about": "“An Unexpected Deuterium-Induced Metabolic Switch in Doxophylline” (ACS Medicinal Chemistry Letters, 2022)", "key": {"BLM-induced lung injury": {"tested_on": "BLM-induced lung injury", "test": "Bleomycin (BLM)-induced lung injury model", "assay_type": "in vivo", "conditions": "BLM-treated mice, 80 mg/kg orally daily; for fibrosis: collagen fibers, Masson's Trichrome and Picrosirius red staining, semiquantitative: versus vehicle group", "experimental": "With regard to the BLM-induced lung injury, we treated mice orally with 80 mg/kg doxophylline, d4-doxophylline, or d7-doxophylline daily (Figure 6a). […] Finally, to investigate the fibrosis, we performed a semiquantitative analysis on the Masson’s Trichrome- and Picrosirius red-stained sections in order to evaluate the presence and the packing of collagen fibers. […] Furthermore, an interesting association of the inflammatory infiltrate and stromal remodeling was observed. Indeed, the decrease in the interstitial inflammatory state led to a reduction of fibrosis in the doxophylline- and d7-treated groups, as can be observed in the respective representative images.\nFigure 6 Model of pulmonary fibrosis induced by bleomycin. Doxophylline and d7-doxophylline attenuate BLM-induced structural damage and lung fibrosis in mice. (a) Representative scheme of the BLM-induced lung injury model. (b) Total BAL cellularity of sham mice (not treated) and bleomycin-treated mice (treated or not with 80 mg/kg doxophylline, d4-doxophylline, or d7-doxophylline). Results are reported as mean ± SEM of three independent experiments. (c) Wet/dry lung weight ratio of sham and bleomycin-treated mice (treated or not with 80 mg/kg doxophylline, d4-doxophylline, or d7-doxophylline). Results are reported as mean ± SEM of three independent experiments. (d) MPO activity in lungs of sham and bleomycin-treated mice (treated or not with 80 mg/kg doxophylline, d4-doxophylline and d7-doxophylline). Results are reported as mean ± SEM of three independent experiments. (e) Representative images of H&E staining of sham and bleomycin-treated mice (treated or not with 80 mg/kg doxophylline, d4-doxophylline, or d7-doxophylline). (f, g) Representative images of (f) Masson’s trichrome staining and (g) Picrorius red staining of sham and bleomycin-treated mice (treated or not with 80 mg/kg doxophylline, d4-doxophylline, or d7-doxophylline). p values: *, p < 0.05; **, p < 0.01; ***, p < 0.001; ****, p < 0.0001.\n8-week-old male C57Bl/6 mice (Envigo, Indianapolis, USA) weighing between 25 and 30 g were used. Animal care was in compliance with Italian regulations on protection of animals used for experimental purposes and were authorized by the Ministry of Health. We administered BLM (0.02U/50µl) by mouse pharyngeal aspiration, under isoflurane ana esthesia.2 Doxophylline, d4 or d7 ([…], solubilized in 0.9% NaCl solution) or saline treatment (vehicle) was given orally (gavage administration) 1 h before BLM treatment, and then once a day thereafter. Mice were euthanized on day 21 following BLM treatment.\nBAL was performed through a tracheal cannula using 1 mL aliquots of ice -cold Ca2+/Mg2+-free phosphate-buffered medium (145 mM NaCl, 5 mM KCl, 1.9 mM NaH 2PO4, 9.35 mM Na2HPO4, and 5.5 mM dextrose, pH 7.4). BAL samples were centrifuged at 500× g for 5 min at 4 °C, and cell pellets were washed an d resuspended in phosphate -buffered medium. BAL cells were enumerated by counting on a Hemocytometer the presence of the trypan blue stain.\nMyeloperoxidase (MPO) activity, a marker of polymorphonuclear leukocyte (PMN) infiltration, was determined using MPO Colorimetric Activity Assay Kit (Merck Life Science), according to the manufacturer’s protocol. MPO activity was described as the amount of enzyme degrading 1 μM of peroxide/minute at 37°C and was expressed in U/mg of wet tissue.\nEvaluation of fluid content in lungs.\nThe wet lung weight was calculated after harvesting the lungs, without any extraneous tissue. The lung s were subjected for 72 hours at 100°C and the dry weight was measured. Water content was calculated b y subtracting dry weight from wet weight.\nLungs were fixed with 10% buffered formalin at room temperature for 48h, dehydrated in 70% ethanol, and embedded in paraffin with Diapath automatic processor. Sections (4 μm thick) were stained with hae matoxylin and eosin (H&E) according to standard protocol and samples were mounted in Eukitt (Bio -Optica). To […]"}, "[1]": {"test": "Levels of doxophylline metabolites in mice plasma", "assay_type": "in vivo", "excerpt": "From an analysis of the levels of metabolites in mice plasma, it was seen that deuteration of the dioxolane ring (d4-doxophylline) triggered considerable alterations in the relative abundances of the metabolites generated. […] This is mainly related to a marked increase of the metabolic route 2, in which the electronic influence of the two oxygen atoms adjacent to the target sp^3 carbon atom greatly facilitates oxene attack and homolytic cleavage of the C–H bond.[29]\nWith regard to d7-doxophylline, only a semiquantitative determination was feasible because its metabolites (with the exception of theophylline) retain deuterium atoms (see the Supporting Information for structures). Indeed, the presence of deuterium lowers the signals in the electrospray ionization source, and the corresponding deuterated standards of the metabolites would have been necessary to perform an accurate quantification. Moreover, no reference standard was available for the quantification of the metabolites dm-doxophylline 9 and dh-doxophylline 10, and their relative abundances were expressed as peak areas of the corresponding accurate-mass ions.\n• Comparative pharmacokinetic study\nA total of 96 CD1 male mice, approximately 6 weeks old and with a body weight of approximately 30 g, were purchased from Envigo RMS srl, (San Pietro al Natisone, UD, Italy). […]\nProtocol for drug administration and blood sampling.\nBlood samples were collected under light isoflurane anaesthesia from the sublingual vein at the following time points (n=3): pre-dose and 5, 15, 30 minutes, 1, 2, 4, 8 and 24 hours after i.v. dosing (20 mg/Kg, dose volume 5 mL/Kg) and pre-dose and 15, 30 minutes, 1, 2, 4, 8 and 24 hours after oral gavage dosing (80 mg/Kg, dose volume 5 mL/Kg). Each animal was sampled on each day at a maximum of two alternating time points.\nSamples were transferred into tubes containing K3EDTA as anticoagulant, centrifuged, and stored at -80 °C. […] Sample preparation for HPLC-MS analysis.\nA volume of 50 µL of caffeine solution (1 mg/L in water-methanol 1:1) were added to plasma sample aliquots (50 µL); after the addition of the precipitant solution (100 µL of 10% ice-cold trichloroacetic acid in water), samples were centrifuged at 13,000 rpm for ten minutes and the supernatant injected onto the HPLC system (see supporting information for chromatographic conditions). If the levels of analytes were over range, plasma samples were preventively diluted with blank plasma.\nQuantification of doxophylline and its deuterated analogues d4 and d7 as well as their main metabolites, 7-theophylline acetic acid (T-COOH), 7-hydroxyethyl theophylline (Eto) and theophylline, was performed by using the calibration curves obtained with the corresponding working standards of the analytes and using caffeine as internal standard.\nThe pharmacokinetic parameters for doxophylline and its deuterated analogues were calculated by plotting the plasma concentration curves versus time obtained from the average values of three animals, using PK Solver"}}, "data": [{"compound": "[2H]C1([2H])OC([2H])(C([2H])([2H])n2cnc3c2c(=O)n(C)c(=O)n3C)OC1([2H])[2H]", "note": "[d7-doxophylline]", "values": [{"measurement": "MPO activity in lungs", "setting": "BLM-induced lung injury", "value": "decreased"}, {"measurement": "accumulation of immune cells in bronchoalveolar lavage (total BAL cellularity)", "setting": "BLM-induced lung injury", "value": "significantly reverted"}, {"measurement": "histological examination by H&E staining", "setting": "BLM-induced lung injury", "value": "decrease in the inflammatory interstitial infiltrate"}, {"measurement": "ratio between wet and dry lung", "setting": "BLM-induced lung injury", "value": "decreased liquid accumulation"}, {"measurement": "fibrosis: collagen fibers, Masson's Trichrome and Picrosirius red staining, semiquantitative", "setting": "BLM-induced lung injury", "value": "slight tendency toward reduction in thickness and packing of collagen fibers"}, {"measurement": "levels of all metabolites except dm-doxophylline 9 versus doxophylline", "setting": "[1]; semiquantitative determination", "value": "diminished levels"}]}, {"compound": "Cn1c(=O)c2c(ncn2CC2OCCO2)n(C)c1=O", "note": "[doxophylline]", "values": [{"measurement": "MPO activity in lungs", "setting": "BLM-induced lung injury", "value": "decreased"}, {"measurement": "accumulation of immune cells in bronchoalveolar lavage (total BAL cellularity)", "setting": "BLM-induced lung injury", "value": "significantly reverted"}, {"measurement": "histological examination by H&E staining", "setting": "BLM-induced lung injury", "value": "decrease in the inflammatory interstitial infiltrate"}, {"measurement": "ratio between wet and dry lung", "setting": "BLM-induced lung injury", "value": "decreased liquid accumulation"}, {"measurement": "fibrosis: collagen fibers, Masson's Trichrome and Picrosirius red staining, semiquantitative", "setting": "BLM-induced lung injury", "value": "slight tendency toward reduction in thickness and packing of collagen fibers"}]}, {"compound": "[2H]C1([2H])OC(Cn2cnc3c2c(=O)n(C)c(=O)n3C)OC1([2H])[2H]", "note": "[d4-doxophylline]", "values": [{"measurement": "accumulation of immune cells in bronchoalveolar lavage (total BAL cellularity)", "setting": "BLM-induced lung injury", "value": "of lesser extent and lacked statistical significance"}, {"measurement": "histological examination by H&E staining", "setting": "BLM-induced lung injury", "value": "decrease in the inflammatory interstitial infiltrate"}, {"measurement": "fibrosis: collagen fibers, Masson's Trichrome and Picrosirius red staining, semiquantitative", "setting": "BLM-induced lung injury", "value": "slight tendency toward reduction in thickness and packing of collagen fibers"}, {"measurement": "level of metabolite etophylline 7 versus doxophylline", "setting": "[1]", "value": "decreased level"}, {"measurement": "plasmatic level of metabolite theophylline 1 versus doxophylline", "setting": "[1]", "value": "significant increase"}, {"measurement": "level of dehydrogenated metabolite dh-doxophylline 10 versus doxophylline", "setting": "[1]; peak area", "value": "decrease"}, {"measurement": "plasmatic level of metabolite dm-doxophylline 9 versus doxophylline", "setting": "[1]; peak area", "value": "significant increase"}]}]}
